# Results from patent US20210038577A1, “THIOREDOXIN REDUCTASE INHIBITORS FOR USE IN THE TREATMENT OF CANCER” (Cinda Pharma AB, priority 2018, published 2021).
# Target: T1, recombinant rat TrxR (Rattus norvegicus, UniProt O89049)
# T1 sequence (O89049 1-499): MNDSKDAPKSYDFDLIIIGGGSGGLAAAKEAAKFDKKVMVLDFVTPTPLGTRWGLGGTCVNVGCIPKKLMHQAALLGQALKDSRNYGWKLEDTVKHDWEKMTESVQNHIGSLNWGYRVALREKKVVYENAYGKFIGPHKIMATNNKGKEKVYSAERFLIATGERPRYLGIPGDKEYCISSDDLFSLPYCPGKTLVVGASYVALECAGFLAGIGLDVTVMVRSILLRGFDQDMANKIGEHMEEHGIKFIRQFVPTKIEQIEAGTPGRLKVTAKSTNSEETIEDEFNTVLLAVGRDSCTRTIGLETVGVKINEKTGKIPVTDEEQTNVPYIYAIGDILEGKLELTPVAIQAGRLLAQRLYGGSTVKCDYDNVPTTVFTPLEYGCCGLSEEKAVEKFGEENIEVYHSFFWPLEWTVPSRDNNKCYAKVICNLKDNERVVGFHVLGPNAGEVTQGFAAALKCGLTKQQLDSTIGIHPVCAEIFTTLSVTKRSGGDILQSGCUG
# Experiment: Sec-dependent TrxR activity (DTNB assay)
# Format: biochemical
# Conditions: binding time of 4 hours (FIG. 1A)
# Experimental: Sec-dependent TrxR activity was assessed using a 5′-5-dithiobis-(2-nitrobenzoic acid) (DTNB) assay. Multiple concentrations of compounds were incubated for various time points in reaction buffer, consisting of 50 mM Tris pH 7.5 with 2 mM EDTA and 0.1 mg/mL bovine serum albumin, and containing recombinant rat TrxR and 250 μM NADPH. 2.5 mM DTNB was added to each well and TNB^− production was followed at OD412. […] The amino acid sequence of rat TrxR1 is available in Gen Bank, with accession number AAF32362.1.
structure (smiles),measurement,value
"COc1ccc([N+](=O)[O-])c(S(=O)(=O)c2ccc(Cl)cc2)n1 [OT-1000, 2-((4-Chlorophenyl)sulfonyl)-6-methoxy-3-nitropyridine]","potency relative to Iniparib, TrxR C-terminal activity",1000 fold
